Test results: patent US20250170120A1, “ALLOSTERIC STING MODULATORS AND METHODS OF USE” (THE BOARD OF REGENTS OF THE UNIVERSITY OF TEXAS SYSTEM, priority 2022, published 2025)

target: T1, STING (Homo sapiens, UniProt Q86WV6, G230A/H232R/R293Q/R71H); assay: STING pathway activity in THP1-Dual/THP-1 cells upon cGAMP or MSA-2 stimulation (luciferase/interferon readout); type: cell-based; conditions: 10 μM compound; cGAMP (100 μM) or MSA-2 (10 μM) stimulation; THP-1 cells
T1 construct: host or cells: THP-1 / THP1-Dual / THP1-Lucia ISG cells
T1 sequence (Q86WV6 whole entry R71H/G230A/H232R/R293Q): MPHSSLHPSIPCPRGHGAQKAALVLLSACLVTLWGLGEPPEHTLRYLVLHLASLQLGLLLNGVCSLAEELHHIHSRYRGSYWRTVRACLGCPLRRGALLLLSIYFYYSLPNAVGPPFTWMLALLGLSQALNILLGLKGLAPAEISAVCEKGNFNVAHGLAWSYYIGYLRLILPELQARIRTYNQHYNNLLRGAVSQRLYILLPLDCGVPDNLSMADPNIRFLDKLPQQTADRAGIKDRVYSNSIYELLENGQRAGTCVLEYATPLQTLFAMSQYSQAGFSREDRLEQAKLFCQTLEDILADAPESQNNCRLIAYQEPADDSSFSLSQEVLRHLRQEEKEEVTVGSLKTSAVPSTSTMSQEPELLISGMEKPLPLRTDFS
Excerpt: (§1) Methods of measuring STING activity and by extension, the activity of the compounds discussed herein, are known in the art. As an example, the STING pathway activity may be evaluated using reporter cell lines where a reporter gene (i.e., luciferase, GFP) is expressed under direct or indirect control of interferon response elements. For example, in an exemplary embodiment, the STING pathway can be measured using THP1-Dual™ cells (InvivoGen) which express the Lucia gene (a secreted luciferase reporter gene) under the control of an ISG54 minimal promoter in conjunction with five IFN-stimulated response elements. The STING pathway, when activated, stimulates interferon release which, in this model, will increase luciferase expression in a detectable manner. When inhibited, interferon release will be decreased, reducing luciferase expression in a detectable manner. The compounds can optionally be tested in the presence of external stimulation (i.e., using cGAMP, a natural agonist of STING, or MSA-2).
The STING pathway activity was evaluated in THP1-Dual™ cells (Invivogen). […] After incubating at 37° C. for 16 hours, the luciferase activity was measured by QUANTI-Luc™ (Invivogen).

SMILES	inhibition at 10 µM
CC1(C)C(=O)N(Cc2c(Cl)cccc2Oc2cc(F)cc(F)c2)c2cc(C(F)(F)F)ccc21 [UT073, 1-(2-chloro-6-(3,5-difluorophenoxy)benzyl)-3,3-dimethyl-6-(trifluoromethyl) indolin-2-one]	< 50%
CC1(C)C(=O)N(Cc2c(F)cccc2C(N)=O)c2cc(C(=O)NCc3c(F)cc(F)cc3F)ccc21 [UT126, 1-(2-carbamoyl-6-fluorobenzyl)-3,3-dimethyl-2-oxo-N-(2,4,6-trifluorobenzyl) indoline-6-carboxamide]	< 50%
CC1(C)C(=O)N(Cc2c(F)cc(F)cc2F)c2cc(C(=O)NCc3cc4ccccc4[nH]3)ccc21 [UT141, N-((1H-indol-2-yl)methyl)-3,3-dimethyl-2-oxo-1-(2,4,6-trifluorobenzyl)indoline-6-carboxamide]	> 50%
CC1(C)C(=O)N(Cc2c(F)cccc2C(F)(F)F)c2cc(C(=O)NCc3cc4ccccc4[nH]3)ccc21 [UT142, N-((1H-indol-2-yl)methyl)-1-(2-fluoro-6-(trifluoromethyl)benzyl)-3,3-dimethyl-2-oxoindoline-6-carboxamide]	> 50%
CC1(C)C(=O)N(Cc2c(Oc3cc(F)cc(F)c3)cccc2C(F)(F)F)c2cc(C(F)(F)F)ccc21 [UT149, 1-(2-(3,5-difluorophenoxy)-6-(trifluoromethyl)benzyl)-3,3-dimethyl-6-(trifluoromethyl)indolin-2-one]	< 50%
Cc1nn(C)c(CN2C(=O)C(C)[C@@H](C)c3ccc(C(=O)NCc4cc5ccccc5[nH]4)cc32)c1Br (stereo partly drawn) [UT151, (4R)-N-((1H-indol-2-yl)methyl)-1-((4-bromo-1,3-dimethyl-1H-pyrazol-5-yl)methyl)-3,4-dimethyl-2-oxo-1,2,3,4-tetrahydroquinoline-7-carboxamide]	< 50%
CC1C(=O)N(Cc2c(F)cccc2C(F)(F)F)c2cc(C(=O)NCc3c(F)cc(F)cc3F)ccc2[C@@H]1C (stereo partly drawn) [UT153, (4R)-1-(2-fluoro-6-(trifluoromethyl)benzyl)-3,4-dimethyl-2-oxo-N-(2,4,6-trifluorobenzyl)-1,2,3,4-tetrahydroquinoline-7-carboxamide]	< 50%
CC1C(=O)N(Cc2c(F)cc(F)cc2F)c2cc(C(=O)NCc3cc4ccccc4[nH]3)ccc2[C@@H]1C (stereo partly drawn) [UT156, (4R)-N-((1H-indol-2-yl)methyl)-3,4-dimethyl-2-oxo-1-(2,4,6-trifluorobenzyl)-1,2,3,4-tetrahydroquinoline-7-carboxamide]	> 50%
Cc1nn(C)c(CN2C(=O)C(C)(C)c3ccc(C(=O)NCc4cc5ccccc5[nH]4)cc32)c1C [UT157, N-((1H-indol-2-yl)methyl)-3,3-dimethyl-2-oxo-1-((1,3,4-trimethyl-1H-pyrazol-5-yl)methyl)indoline-6-carboxamide]	< 50%
CC1C(=O)N(Cc2c(F)cccc2C(F)(F)F)c2cc(C(=O)NCc3cc4ccccc4[nH]3)ccc2[C@@H]1C (stereo partly drawn) [UT158, (4R)-N-((1H-indol-2-yl)methyl)-1-(2-fluoro-6-(trifluoromethyl)benzyl)-3,4-dimethyl-2-oxo-1,2,3,4-tetrahydroquinoline-7-carboxamide]	< 50%
Cc1nn(C)c(CN2C(=O)C(C)[C@@H](C)c3ccc(C(=O)NCc4cc5ccccc5[nH]4)cc32)c1C (stereo partly drawn) [UT160, (4R)-N-((1H-indol-2-yl)methyl)-3,4-dimethyl-2-oxo-1-((1,3,4-trimethyl-1H-pyrazol-5-yl)methyl)-1,2,3,4-tetrahydroquinoline-7-carboxamide]	< 50%
CC1(C)C(=O)N(Cc2c(Oc3cc(F)cc(F)c3)cccc2C(F)(F)F)c2cc(C#N)ccc21 [UT200, 1-(2-(3,5-difluorophenoxy)-6-(trifluoromethyl)benzyl)-3,3-dimethyl-2-oxoindoline-6-carbonitrile]	> 50%
CC1(C)C(=O)N(Cc2c(Oc3cc(F)cc(F)c3)cccc2C(F)(F)F)c2ccc(C#N)cc21 [UT201, 1-(2-(3,5-difluorophenoxy)-6-(trifluoromethyl)benzyl)-3,3-dimethyl-2-oxoindoline-5-carbonitrile]	< 50%
CC1(C)C(=O)N(Cc2c(Oc3cc(F)cc(F)c3)cccc2C(F)(F)F)c2ccc(C(F)(F)F)cc21 [UT202, 1-(2-(3,5-difluorophenoxy)-6-(trifluoromethyl)benzyl)-3,3-dimethyl-5-(trifluoromethyl)indolin-2-one]	< 50%
CC1(C)C(=O)N(Cc2c(Oc3cc(F)cc(F)c3)cccc2C(F)(F)F)c2cc3c(cc21)OCO3 [UT203, 5-(2-(3,5-difluorophenoxy)-6-(trifluoromethyl)benzyl)-7,7-dimethyl-5,7-dihydro-6H-[1,3]dioxolo[4,5-f]indol-6-one]	> 50%

same assay, conditions: THP-1 cells; 10 μM MSA2; increasing concentrations of compound

SMILES	Induction of interferon production in the presence of MSA2
CC1(C)C(=O)N(Cc2c(F)cc(F)cc2F)c2cc(C(=O)NCc3cc4ccccc4[nH]3)ccc21 [UT141, N-((1H-indol-2-yl)methyl)-3,3-dimethyl-2-oxo-1-(2,4,6-trifluorobenzyl)indoline-6-carboxamide]	inhibited in a dose dependent manner
CC1(C)C(=O)N(Cc2c(F)cccc2C(F)(F)F)c2cc(C(=O)NCc3cc4ccccc4[nH]3)ccc21 [UT142, N-((1H-indol-2-yl)methyl)-1-(2-fluoro-6-(trifluoromethyl)benzyl)-3,3-dimethyl-2-oxoindoline-6-carboxamide]	inhibited in a dose dependent manner
Cc1nn(C)c(CN2C(=O)C(C)(C)c3ccc(C(=O)NCc4cc5ccccc5[nH]4)cc32)c1C [UT157, N-((1H-indol-2-yl)methyl)-3,3-dimethyl-2-oxo-1-((1,3,4-trimethyl-1H-pyrazol-5-yl)methyl)indoline-6-carboxamide]	inhibited in a dose dependent manner

target: T1, STING; assay: cGAMP dose-response IFN induction in the presence of increasing compound concentrations; type: cell-based; conditions: FIGS. 16A-16D
Description: Compounds UT009, UT019, UT073 and UT122 were tested for their ability to interfere with cGAMP induced STING signaling. FIGS. 16A-16D show dose response plots of cGAMP induced IFN induction in the presence of increasing concentrations of each compound.
(§2) Compounds UT017, UT018, UT019 and UT0122 were tested for their ability to interfere with STING signaling. Interferon production in the presence of increasing concentrations of UT017, UT018, UT019 or UT0122 were measured in THP-1 cell lines under basal conditions. […] Compound UT0122 was further tested in THP1-Lucia™ ISG cells for interferon production at varying concentration, in the presence of an increasing dose of a STING agonist cGAMP.

SMILES	cGAMP induced IFN induction in the presence of increasing concentrations of compound
CC1(C)C(=O)N(Cc2c(Cl)cccc2Oc2cc(F)cc(F)c2)c2cc(C(F)(F)F)ccc21 [UT073, 1-(2-chloro-6-(3,5-difluorophenoxy)benzyl)-3,3-dimethyl-6-(trifluoromethyl) indolin-2-one]	dose-dependent suppression of interferon production

target: T1, STING; assay: Interferon production in THP-1 cells under basal conditions (no external stimulation); type: cell-based; conditions: 32 μM compound; no external stimulation; THP-1 cells
Excerpt: as §1, §2
The STING pathway activity was evaluated in THP1-Dual™ cells (Invivogen). 1.5×10^5 THP1-Dual™ cells were seeded in 96-well plates and treated with the test compound followed by cGAMP (100 uM) or MSA-2 (10 uM, Science 2020, 369, eaba6098) 2 hours later. After incubating at 37° C. for 16 hours, the luciferase activity was measured by QUANTI-Luc™ (Invivogen).

SMILES	Activity (inhibition under basal conditions)	inhibition at 32 µM
C[C@@H](NC(=O)c1ccc2c(c1)N(Cc1c(F)cccc1Cl)C(=O)C2(C)C)c1c(F)cc(F)cc1F [UT065, (R)-1-(2-chloro-6-fluorobenzyl)-3,3-dimethyl-2-oxo-N-(1-(2,4,6-trifluorophenyl)ethyl) indoline-6-carboxamide]	D*	–
C[C@H](NC(=O)c1ccc2c(c1)N(Cc1c(F)cccc1Cl)C(=O)C2(C)C)c1c(F)cc(F)cc1F [UT066, (S)-1-(2-chloro-6-fluorobenzyl)-3,3-dimethyl-2-oxo-N-(1-(2,4,6-trifluorophenyl)ethyl) indoline-6-carboxamide]	D*	–
CC1(C)C(=O)N(Cc2c(Cl)cccc2OCc2cc(F)cc(F)c2)c2cc(C(F)(F)F)ccc21 [UT071a, 1-(2-chloro-6-((3,5-difluorobenzyl)oxy)benzyl)-3,3-dimethyl-6-(trifluoromethyl)indolin-2-one]	–	< 50%
CC1(C)C(=O)N(Cc2c(Cl)cccc2OCc2cc(F)cc(F)c2)c2cc(F)ccc21 [UT072, 1-(2-chloro-6-((3,5-difluorobenzyl)oxy)benzyl)-6-fluoro-3,3-dimethylindolin-2-one]	–	< 50%
CC1(C)C(=O)N(Cc2c(Cl)cccc2Oc2cc(F)cc(F)c2)c2cc(F)ccc21 [UT074, 1-(2-chloro-6-(3,5-difluorophenoxy)benzyl)-6-fluoro-3,3-dimethylindolin-2-one]	–	< 50%
CC1(C)C(=O)N(Cc2c(F)cc(F)cc2F)c2cc(C(=O)NCc3cc4ccccc4o3)ccc21 [UT114, N-(benzofuran-2-ylmethyl)-3,3-dimethyl-2-oxo-1-(2,4,6-trifluorobenzyl)indoline-6-carboxamide]	D*	–
CC1(C)C(=O)N(Cc2c(F)cccc2F)c2cc(-c3ncc(-c4c(F)cc(F)cc4F)o3)ccc21 [UT115, 1-(2,6-difluorobenzyl)-3,3-dimethyl-6-(5-(2,4,6-trifluorophenyl)oxazol-2-yl)indolin-2-one]	D*	–
CC1(C)C(=O)N(Cc2c(F)cccc2F)c2cc(-c3coc(-c4cccc(F)c4)n3)ccc21 [UT117, 1-(2,6-difluorobenzyl)-6-(2-(3-fluorophenyl)oxazol-4-yl)-3,3-dimethylindolin-2-one]	D*	–
CC1(C)C(=O)N(Cc2c(F)cccc2F)c2cc(-c3cn(-c4ccccc4)nn3)ccc21 [UT118, 1-(2,6-difluorobenzyl)-3,3-dimethyl-6-(1-phenyl-1H-1,2,3-triazol-4-yl)indolin-2-one]	D*	–
CC1(C)C(=O)N(Cc2c(F)cc(F)cc2F)c2cc(C(=O)NCc3cc4cc(F)c(F)cc4o3)ccc21 [UT120, N-((5,6-difluorobenzofuran-2-yl)methyl)-3,3-dimethyl-2-oxo-1-(2,4,6-trifluorobenzyl) indoline-6-carboxamide]	D*	–
Cc1nn(C)c(CN2C(=O)C(C)(C)c3ccc(C(=O)NCc4cc5ccccc5s4)cc32)c1Br [UT121, N-(benzo[b]thiophen-2-ylmethyl)-1-((4-bromo-1,3-dimethyl-1H-pyrazol-5-yl)methyl)-3,3-dimethyl-2-oxoindoline-6-carboxamide]	D*	–
